Data reported in US9999222B2, “Herbicidal combination comprising azines” (BASF SE, priority 2014, dated 2018).
Read-outs that look alike come from different tables or passages of the source.

Legend:
Assay in all cases: Greenhouse test, pre-emergence treatment
POLCO = assay type: in vivo, Polygonum convolvulus; conditions: Fallopia convolvulus, 480 h, pre-emergence, read-out: observed % activity 20 DAT
Outline: (§1)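 Damage was rated on a 0-100 scale, with 100 meaning no emergence or full destruction of aerial parts. Observed combination effects were set against the additive Colby expectation E=X+Y−(X·Y/100). Spray liquor was water-based, from 10% emulsion concentrates, applied pre-emergence right after sowing in loamy sand (about 3.0% humus). Plants were held at 10-25 °C or 20-35 °C for 2 to 4 weeks.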

SIDRH = assay type: in vivo, Sida rhombifolia; conditions: pre-emergence, 250 g ai/ha
Outline: as §1

BRADC = assay type: in vivo, Brachiaria decumbens; conditions: Urochloa decumbens, pre-emergence, 480 h, pre-emergence, read-out: observed % activity 20 DAT
Outline: as §1

LOLMU = assay type: in vivo, Lolium multiflorum; conditions: Lolium multiflorum, pre-emergence, 480 h, pre-emergence, read-out: observed % activity 20 DAT
Outline: as §1

GERPU = assay type: in vivo, Geranium pusillum; conditions: Geranium pusillum, pre-emergence, 480 h, pre-emergence, read-out: observed % activity 20 DAT
Outline: as §1

PHACA = assay type: in vivo, Phalaris canariensis; conditions: pre-emergence, pre-emergence
Outline: as §1

AVEFA = assay type: in vivo, Avena fatua; conditions: pre-emergence
Outline: as §1

ALOMY = assay type: in vivo, Alopecurus myosuroides; conditions: Alopecurus myosuroides, pre-emergence, 480 h, pre-emergence, read-out: observed % activity 20 DAT
Outline: as §1

SETFA = assay type: in vivo, Setaria faberi
Outline: as §1

ECHCG = assay type: in vivo, Echinocloa crus-galli; conditions: Echinochloa crus-galli, 480 h, use rate 31.25 g ai/ha, read-out: observed % activity 20 DAT
Outline: as §1

EPHHL = assay type: in vivo, Euphorbia heterophylla; conditions: Euphorbia heterophylla, pre-emergence, 480 h, pre-emergence, 250 g ai/ha; read-out: observed % activity 20 DAT
Outline: as §1

VIOAR = assay type: in vivo, Viola arvensis
Outline: as §1

KCHSC = assay type: in vivo, Kochia scoparia; conditions: Bassia scoparia, 480 h, pre-emergence, read-out: observed % activity 20 DAT
Outline: as §1

COCC(C)N(C(=O)CCl)c1c(C)csc1C (stereo not drawn) [Dimethenamid, dimethenamid]
85%: pest or weed control at 125 g/ha (LOLMU; 125 g ai/ha) | pest or weed control at 62.5 g/ha (LOLMU; use rate 62.5 g ai/ha, 20 DAT) | inhibition at 62.5 g/ha (LOLMU; use rate 62.5 g ai/ha) | pest or weed control at 62.5 g/ha (GERPU; use rate 62.5 g ai/ha, 20 DAT) | inhibition at 62.5 g/ha (GERPU; use rate 62.5 g ai/ha) | observed % activity 20 DAT (AVEFA; 250 g ai/ha) | inhibition at 15.625 g/ha (SETFA; Setaria faberi, 480 h, use rate 15.625 g ai/ha, read-out: observed % activity 20 DAT)
70%: pest or weed control at 250 g/ha (SIDRH; Sida rhombifolia, 480 h, read-out: observed % activity 20 DAT) | observed % activity 20 DAT (SIDRH) | inhibition at 31.25 g/ha (GERPU; use rate 31.25 g ai/ha) | pest or weed control at 125 g/ha (PHACA; Phalaris canariensis, 480 h, 125 g ai/ha, read-out: observed % activity 20 DAT) | observed % activity 20 DAT (PHACA; 125 g ai/ha)
95%: pest or weed control at 125 g/ha (LOLMU; use rate 125 g ai/ha, 20 DAT) | inhibition at 125 g/ha (LOLMU; use rate 125 g ai/ha) | pest or weed control at 125 g/ha (GERPU; use rate 125 g ai/ha, 20 DAT) | observed % activity 20 DAT (AVEFA; 55 g ai/ha)
98%: pest or weed control at 125 g/ha (BRADC; 125 g ai/ha) | pest or weed control at 250 g/ha (BRADC; 250 g ai/ha) | pest or weed control at 500 g/ha (BRADC; 500 g ai/ha) | pest or weed control at 250 g/ha (LOLMU; 250 g ai/ha) | pest or weed control at 250 g/ha (GERPU; 250 g ai/ha) | pest or weed control at 500 g/ha (PHACA; Phalaris canariensis, 480 h, 500 g ai/ha, read-out: observed % activity 20 DAT) | inhibition at 31.25 g/ha (SETFA; Setaria faberi, 480 h, use rate 31.25 g ai/ha, read-out: observed % activity 20 DAT) | observed % activity 20 DAT (SETFA; use rate 31.25 g ai/ha, 20 DAT) | pest or weed control at 31.25 g/ha (ECHCG; 20 DAT) | inhibition at 31.25 g/ha (ECHCG)
55%: inhibition at 31.25 g/ha (LOLMU; use rate 31.25 g ai/ha) | pest or weed control at 31.25 g/ha (PHACA; Phalaris canariensis, 480 h, use rate 31.25 g ai/ha, 20 DAT, read-out: observed % activity 20 DAT) | inhibition at 31.25 g/ha (PHACA; Phalaris canariensis, 480 h, use rate 31.25 g ai/ha, read-out: observed % activity 20 DAT)
75%: pest or weed control at 500 g/ha (ALOMY; 500 g ai/ha) | pest or weed control at 250 g/ha (KCHSC; 250 g ai/ha)
80%: pest or weed control at 125 g/ha (PHACA; Phalaris canariensis, 480 h, use rate 125 g ai/ha, 20 DAT, read-out: observed % activity 20 DAT) | inhibition at 125 g/ha (PHACA; Phalaris canariensis, 480 h, use rate 125 g ai/ha, read-out: observed % activity 20 DAT)
65%: pest or weed control at 62.5 g/ha (PHACA; Phalaris canariensis, 480 h, use rate 62.5 g ai/ha, 20 DAT, read-out: observed % activity 20 DAT)
50%: inhibition at 15.625 g/ha (GERPU; use rate 15.625 g ai/ha)
25%: pest or weed control at 125 g/ha (ALOMY; 125 g ai/ha) | pest or weed control at 250 g/ha (EPHHL)
0%: pest or weed control at 31.25 g/ha (POLCO; use rate 31.25 g ai/ha, 20 DAT) | pest or weed control at 62.5 g/ha (POLCO; use rate 62.5 g ai/ha, 20 DAT) | pest or weed control at 125 g/ha (POLCO; use rate 125 g ai/ha, 20 DAT) | inhibition at 31.25 g/ha (POLCO; use rate 31.25 g ai/ha) | inhibition at 62.5 g/ha (POLCO; use rate 62.5 g ai/ha) | inhibition at 125 g/ha (POLCO; use rate 125 g ai/ha) | pest or weed control at 15.625 g/ha (LOLMU; use rate 15.625 g ai/ha, 20 DAT) | pest or weed control at 62.5 g/ha (ALOMY; use rate 62.5 g ai/ha, 20 DAT) | inhibition at 62.5 g/ha (ALOMY; use rate 62.5 g ai/ha) | inhibition at 31.25 g/ha (VIOAR; Viola arvensis, 480 h, use rate 31.25 g ai/ha, read-out: observed % activity 20 DAT) | inhibition at 62.5 g/ha (VIOAR; Viola arvensis, 480 h, use rate 62.5 g ai/ha, read-out: observed % activity 20 DAT) | inhibition at 125 g/ha (VIOAR; Viola arvensis, 480 h, use rate 125 g ai/ha, read-out: observed % activity 20 DAT) | observed % activity 20 DAT (VIOAR; use rate 31.25 g ai/ha) | observed % activity 20 DAT (VIOAR; use rate 62.5 g ai/ha) | observed % activity 20 DAT (VIOAR; use rate 125 g ai/ha) | pest or weed control at 31.25 g/ha (KCHSC; use rate 31.25 g ai/ha, 20 DAT) | pest or weed control at 62.5 g/ha (KCHSC; use rate 62.5 g ai/ha, 20 DAT) | pest or weed control at 125 g/ha (KCHSC; use rate 125 g ai/ha, 20 DAT) | inhibition at 31.25 g/ha (KCHSC; use rate 31.25 g ai/ha) | inhibition at 62.5 g/ha (KCHSC; use rate 62.5 g ai/ha) | inhibition at 125 g/ha (KCHSC; use rate 125 g ai/ha)
35%: inhibition at 125 g/ha (ALOMY; use rate 125 g ai/ha)
10%: pest or weed control at 15.625 g/ha (PHACA; Phalaris canariensis, 480 h, use rate 15.625 g ai/ha, 20 DAT, read-out: observed % activity 20 DAT)
